Experiments:
[1] = tested on: L929 cells; test: L929 cell necroptosis assay (same protocol as the HT29 cell assay); assay type: cell-based, mouse; settings: for L929 Inhibition (10 μM): 10 μM test compound, protocol as HT29 assay; for IC50: Mus musculus
Experimental: The efficacies of RIP1 inhibitors were tested in vitro using human colon cancer TH29 cells in a necroptosis assay. […] Then the cells were treated with TNF-α (40 ng/mL), Smacmimetic (100 nM) and z-VAD (20 μM) for 48 hours, and the viability was quantified. DMSO pretreatment group was negative control, Nec-1 pretreatment group was positive control.
Biological In Vitro L929 Cell Assay.
Mouse L-cells NCTC 929 (L929) were acquired from ATCC (cat. no. ATCC CCL-1) and banked in liquid nitrogen. The assay protocol was the same as described for the HT29 cell assay.

[2] = tested on: HT29 cells; test: HT29 cell necroptosis assay (TNF-α/Smac mimetic/z-VAD induced necrosis, viability); assay type: cell-based, human; settings: Homo sapiens, HT-29, HT29 cells, TNF-α/Smacmimetic/z-VAD induced necrosis
[3] = tested on: HT29 cells; test: as above; assay type: cell-based, human; settings: 10 μM test compound pretreated one hour, TNF-α (40 ng/mL), Smacmimetic (100 nM), z-VAD (20 μM) for 48 hours
Experimental: Biological in Vitro HT29 Cell Assay.
The efficacies of RIP1 inhibitors were tested in vitro using human colon cancer TH29 cells in a necroptosis assay. For the assay, Cells were added to 96-well plates and then 10 μM of the test compound was pretreated for one hour. Then the cells were treated with TNF-α (40 ng/mL), Smacmimetic (100 nM) and z-VAD (20 μM) for 48 hours, and the viability was quantified. DMSO pretreatment group was negative control, Nec-1 pretreatment group was positive control.

CC(=O)Nc1nc2ccc(-c3cnc(Cl)c(NC(=O)Cc4ccccc4Cl)c3)cc2s1 [Compound A24]
L929 Inhibition (10 μM) [1]: 42% | IC50 ([2]; values in nM): 527 nM | HT29 Inhibition (10 μM) [3]: 113%

CC(=O)Nc1nc2ccc(-c3cnc(C)c(NC(=O)Cc4ccccc4)c3)cc2s1 [Compound A23]
L929 Inhibition (10 μM) [1]: 42% | IC50 ([2]; values in nM): 670 nM | HT29 Inhibition (10 μM) [3]: 104%

CC(=O)Nc1nc2ccc(-c3cncc(NC(=O)Cc4ccccc4Cl)c3)cc2s1 [Compound A13]
L929 Inhibition (10 μM) [1]: 94% | IC50 ([2]; values given in μM): 5240 nM | HT29 Inhibition (10 μM) [3]: 80%

CC(=O)Nc1nc2ccc(-c3cncc(NC(=O)Cc4ccccc4)c3)cc2s1 [Compound A12]
L929 Inhibition (10 μM) [1]: 80% | IC50 ([2]; values given in μM): 2560 nM | HT29 Inhibition (10 μM) [3]: 11%

CC(=O)Nc1nc2ccc(-c3cnc(C)c(NC(=O)OC4CCCCC4)c3)nc2s1 [Compound A57]
IC50 ([1]; values in nM): 30 nM | IC50 ([2]; values in nM): 92 nM

CC(=O)Nc1nc2ccc(-c3cnc(C)c(NC(=O)CC(C)(C)C)c3)cc2s1 [Compound A45]
IC50 ([1]; values given in μM): 1010 nM | IC50 ([2]; values in nM): 430 nM

CC(=O)Nc1nc2ccc(-c3cnc(Cl)c(NC(=O)Cc4ccccc4)c3)cc2s1 [Compound A21]
L929 Inhibition (10 μM) [1]: 42% | IC50 ([2]; values given in μM): 16500 nM | HT29 Inhibition (10 μM) [3]: 28%
